Measurements: ChEMBL document CHEMBL1201862, “PubChem BioAssay data set” (2004)
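Protocol summary: plate cells (96-well), add compound at 5 concentrations, incubate 48 h, interpolate endpoints linearly. GI50 marks 50% less growth.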 Activity calls are given as the source filed them. No stated cut-off is given here; in the data, active = GI50 up to about 1.1 µM and inactive = higher.

Experiments:
Test in all cases: NCI tumour cell line growth inhibition, 48 h
OVCAR-4 = test system: OVCAR-4
LOX IMVI = test system: LOX IMVI
K562 = test system: K562
HCT-116 = test system: HCT-116
OVCAR-8 = test system: OVCAR-8
BT-549 = test system: BT-549
SR = test system: SR
OVCAR-3 = test system: OVCAR-3
DU-145 = test system: DU-145
SF-295 = test system: SF-295
PC-3 = test system: PC-3
HOP-92 = test system: HOP-92
MCF7 = test system: MCF7
SN12C = test system: SN12C
SK-MEL-5 = test system: SK-MEL-5
Malme-3M = test system: Malme-3M
SK-MEL-2 = test system: SK-MEL-2
HOP-62 = test system: HOP-62
SK-OV-3 = test system: SK-OV-3
HT-29 = test system: HT-29

Measured: GI50

COc1c2c(cc3oc(C)cc(=O)c13)OC(=N)C(C(N)=O)C2CC(=O)c1ccc(N)cc1 (stereo unspecified)
inactive: OVCAR-4 > 100 µM | LOX IMVI > 100 µM | K562 > 100 µM | HCT-116 > 100 µM | OVCAR-8 > 100 µM | BT-549 > 100 µM | SR > 100 µM | OVCAR-3 > 100 µM | DU-145 > 100 µM | SF-295 > 100 µM | PC-3 > 100 µM | HOP-92 > 100 µM | MCF7 > 100 µM | SN12C > 100 µM | SK-MEL-5 > 100 µM | Malme-3M > 100 µM | SK-MEL-2 > 100 µM

O=C(O)COc1cc(-c2ccccc2)nc2cc(F)ccc12
inactive: OVCAR-4 > 100 µM | LOX IMVI > 100 µM | K562 > 100 µM | HOP-62 > 100 µM | HCT-116 > 100 µM | OVCAR-8 > 100 µM | BT-549 > 100 µM | SR > 100 µM | OVCAR-3 > 100 µM | DU-145 > 100 µM | SF-295 > 100 µM | SK-OV-3 > 100 µM | PC-3 > 100 µM | HOP-92 > 100 µM | MCF7 > 100 µM | SN12C > 100 µM | SK-MEL-5 > 100 µM | Malme-3M > 100 µM | SK-MEL-2 > 100 µM | HT-29 > 100 µM

COc1ccc2c(c1)-c1c(c3cc(OC)ccc3n1CCCN(C)C)CC2
inactive: OVCAR-4 11 µM | LOX IMVI 4.06 µM | K562 4.3 µM | HOP-62 14.3 µM | HCT-116 5.2 µM | OVCAR-8 13.7 µM | BT-549 15.5 µM | SR 5.18 µM | OVCAR-3 14.1 µM | DU-145 16.2 µM | SF-295 2.62 µM | SK-OV-3 16.2 µM | PC-3 10.3 µM | HOP-92 12.2 µM | MCF7 7.83 µM | SN12C 12 µM | SK-MEL-5 2.68 µM | Malme-3M 2.28 µM | SK-MEL-2 15.8 µM | HT-29 2.81 µM

CCCCCC(=O)OCC(=O)[C@H]1[C@H](C)C[C@H]2[C@@H]3C[C@H](F)C4=C/C(=N/OC(=O)c5cccc6c(=O)c7ccccc7[nH]c56)C=C[C@]4(C)[C@H]3[C@@H](O)C[C@@]21C
inactive: OVCAR-4 27.4 µM | LOX IMVI 17.6 µM | K562 46.5 µM | HOP-62 33.4 µM | HCT-116 26.4 µM | OVCAR-8 10.8 µM | BT-549 16.5 µM | SR 21.5 µM | OVCAR-3 18.9 µM | DU-145 39.4 µM | SF-295 47.8 µM | SK-OV-3 24.8 µM | PC-3 20.3 µM | HOP-92 73.1 µM | MCF7 21.9 µM | SN12C 20 µM | SK-MEL-5 14.7 µM | Malme-3M 12.5 µM | SK-MEL-2 23.1 µM | HT-29 21.7 µM

Nc1onc2c1Cc1c(noc1N)-c1ccccc1-2
inactive: OVCAR-4 > 100 µM | LOX IMVI 32.6 µM | K562 41.3 µM | HOP-62 > 100 µM | HCT-116 48.9 µM | OVCAR-8 59.6 µM | BT-549 17.5 µM | SR 35.2 µM | OVCAR-3 53.7 µM | DU-145 > 100 µM | SF-295 65.2 µM | SK-OV-3 45.1 µM | PC-3 48.3 µM | HOP-92 37.2 µM | MCF7 49.7 µM | SN12C 85.3 µM | SK-MEL-5 36.6 µM | Malme-3M 41.9 µM | SK-MEL-2 61.2 µM | HT-29 80.4 µM

CC(C)(C(=O)N(C(=O)N1CCN(c2ccccc2)CC1)S(=O)(=O)c1ccccc1)c1ccc(Cl)cc1
inactive: OVCAR-4 28.1 µM | LOX IMVI 46.8 µM | K562 5.68 µM | HOP-62 27.5 µM | HCT-116 17.7 µM | OVCAR-8 16.6 µM | BT-549 30.7 µM | SR 22.8 µM | OVCAR-3 18.7 µM | DU-145 58.5 µM | SF-295 8.63 µM | SK-OV-3 24 µM | PC-3 12.6 µM | HOP-92 5.43 µM | MCF7 4.33 µM | SN12C 52.4 µM | SK-MEL-5 35.7 µM | Malme-3M 90.4 µM | SK-MEL-2 21.3 µM | HT-29 21.4 µM

C=C(Cl)C(C)(Cl)CCC(Cl)C(C)C (stereo unspecified)
inactive: OVCAR-4 > 100 µM | LOX IMVI 15.3 µM | K562 51.5 µM | HOP-62 > 100 µM | HCT-116 > 100 µM | BT-549 > 100 µM | SR 24.8 µM | OVCAR-3 > 100 µM | DU-145 > 100 µM | SF-295 > 100 µM | SK-OV-3 29.6 µM | PC-3 > 100 µM | HOP-92 87.1 µM | MCF7 > 100 µM | SN12C > 100 µM | SK-MEL-5 > 100 µM | Malme-3M > 100 µM | SK-MEL-2 > 100 µM | HT-29 66.8 µM
